Inhibition data for 22 compounds are collected here from ChEMBL document CHEMBL1138337, “Bis-azaaromatic quaternary ammonium salts as antagonists at nicotinic receptors mediating nicotine-evoked dopamine release: An investigation of binding conformation” (2007).

Assay [1] has as its target Neuronal acetylcholine receptor subunit alpha-7 (Rattus norvegicus) (UniProt Q05941). As to the kind of experiment: Displacement of [3H]MLA from alpha-7 nAChR expressed in rat brain membrane at 100 nM. For orientation: Loss of bound radioactivity is the signal in a displacement assay; it reports binding, not function.
Assay [2] has as its target Neuronal acetylcholine receptor; alpha4/beta2 (Rattus norvegicus) (UniProt P09483+P12390). As to the kind of experiment: Displacement of [3H]NIC from alpha-4-beta-2 nAChR expressed in rat brain membrane at 100 nM.

Chain of Neuronal acetylcholine receptor subunit alpha-7 (Rattus norvegicus) (Q05941 whole entry): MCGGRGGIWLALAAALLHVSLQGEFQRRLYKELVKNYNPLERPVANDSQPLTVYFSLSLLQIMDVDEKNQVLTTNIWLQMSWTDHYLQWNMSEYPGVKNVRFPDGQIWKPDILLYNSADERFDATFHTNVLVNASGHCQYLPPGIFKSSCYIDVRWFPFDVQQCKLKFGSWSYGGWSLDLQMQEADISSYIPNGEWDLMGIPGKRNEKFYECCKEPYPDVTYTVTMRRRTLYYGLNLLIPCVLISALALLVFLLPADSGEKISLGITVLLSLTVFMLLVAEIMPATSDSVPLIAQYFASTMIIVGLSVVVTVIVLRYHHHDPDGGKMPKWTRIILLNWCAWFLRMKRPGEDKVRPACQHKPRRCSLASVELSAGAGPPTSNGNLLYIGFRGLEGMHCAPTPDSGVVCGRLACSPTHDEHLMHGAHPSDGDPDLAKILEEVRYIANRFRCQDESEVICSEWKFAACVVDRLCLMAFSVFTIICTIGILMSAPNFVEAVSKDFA

Regarding `Cc1cc[n+](CCCC#Cc2cccc(C#CCCC[n+]3ccc(C)cc3)c2)cc1`, the inhibition (in general, the drop in the measured response relative to a control, in per cent) in assay [1] worked out at 6.4%; in assay [2], 10%.

For the compound `Cc1ccc[n+](CCCC#Cc2cccc(C#CCCC[n+]3cccc(C)c3)c2)c1`, the figures for the inhibition in assay [1] and in assay [2] were 8% and 0.5%, respectively.

With `Cc1cccc[n+]1CCCC#Cc1ccccc1C#CCCC[n+]1ccccc1C`, the inhibition in assay [1] turned out to be 1.2%; in assay [2], 2.1%.

`Cc1ccc[n+](CCCCCc2ccccc2CCCCC[n+]2cccc(C)c2)c1`: the inhibition in assay [1] was 5.4%; in assay [2], 0%.

With `Cc1ccc[n+](CCCCCc2cccc(CCCCC[n+]3cccc(C)c3)c2)c1`, the values for the inhibition in assay [1] and in assay [2] were 6.24% and 3.5%, respectively.

Regarding `Cc1ccc[n+](CCCCCCCCCCCC[n+]2cccc(C)c2)c1`, the inhibition in assay [1] and in assay [2] was 0% throughout.

Regarding `Cc1ccc[n+](CCCC#Cc2ccccc2C#CCCC[n+]2cccc(C)c2)c1`, the figures for the inhibition in assay [1] and in assay [2] were 0% and 3.9%, respectively.

With `CN1CCC[C@H]1c1ccc[n+](CCCCc2ccc(CCCC[n+]3cccc([C@@H]4CCCN4C)c3)cc2)c1`, the figures for the inhibition in assay [1] and in assay [2] were 5.3% and 3.66%, respectively.

With `Cc1ccc[n+](CCC#Cc2ccc(C#CCC[n+]3cccc(C)c3)cc2)c1`, the values for the inhibition in assay [1] and in assay [2] were 3.1% and 13%, respectively.

On to `Cc1cc[n+](CCCC#Cc2ccccc2C#CCCC[n+]2ccc(C)cc2)cc1`, for which the inhibition in assay [1] came to 5.4%; in assay [2], 2.5%.

As for `Cc1cccc[n+]1CCCC#Cc1cccc(C#CCCC[n+]2ccccc2C)c1`, the inhibition was 0% in assay [1] and 1.9% in assay [2].

As for `Cc1cc[n+](CCCCc2ccc(CCCC[n+]3ccc(C)cc3)cc2)cc1`, the inhibition came out at 7.73% in assay [1] and 1.1% in assay [2].

`Cc1cccc[n+]1CCCCCc1ccccc1CCCCC[n+]1ccccc1C`: the inhibition in assay [1] was 7.6%; in assay [2], 0%.

Turning to `CN1CCC[C@H]1c1ccc[n+](CCCCCc2ccccc2CCCCC[n+]2cccc([C@@H]3CCCN3C)c2)c1`, the inhibition in assay [1] is 11%; in assay [2], 71%.

With `Cc1cccc[n+]1CCCCc1ccc(CCCC[n+]2ccccc2C)cc1`, the figures for the inhibition in assay [1] and in assay [2] were 0.16% and 6.3%, respectively.

Turning to `Cc1cc[n+](CCC#Cc2ccc(C#CCC[n+]3ccc(C)cc3)cc2)cc1`, the inhibition is 2.7% in assay [1] and 8.9% in assay [2].

Consider `CN1CCC[C@H]1c1ccc[n+](CCCC#Cc2cccc(C#CCCC[n+]3cccc([C@@H]4CCCN4C)c3)c2)c1`, for which the inhibition in assay [1] was determined as 2.6%; in assay [2], 3.1%.

As for `Cc1cccc[n+]1CCCCCc1cccc(CCCCC[n+]2ccccc2C)c1`, the inhibition was found to be 0% in assay [1] and 7.2% in assay [2].

For the compound `Cc1cc[n+](CCCCCc2ccccc2CCCCC[n+]2ccc(C)cc2)cc1`, the inhibition was determined as 3.1% in assay [1] and 0% in assay [2].

Regarding `Cc1cc[n+](CCCCCc2cccc(CCCCC[n+]3ccc(C)cc3)c2)cc1`, the inhibition stood at 3.5% in assay [1] and 4.6% in assay [2].

For the compound `Cc1ccc[n+](CCCCc2ccc(CCCC[n+]3cccc(C)c3)cc2)c1`, the values for the inhibition in assay [1] and in assay [2] were 7.41% and 4.33%, respectively.

Turning to `CN1CCC[C@H]1c1ccc[n+](CCCC#Cc2ccccc2C#CCCC[n+]2cccc([C@@H]3CCCN3C)c2)c1`, the values for the inhibition in assay [1] and in assay [2] were 9.2% and 72%, respectively.
